Counter-ions that a name gives are not always drawn.
Columns and labels:
[1] = target: ATM (Homo sapiens (Human), UniProt Q13315); experiment: ATM in Cell Western Assay (pKAP1 in etoposide-treated MCF-7 cells); assay type: cell-based
How it was run: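 After paraformaldehyde fixation and Triton X-100 permeabilization, immunostained plates were read by infrared scanning (ODYSSEY CLx). Compound was given as 10 doses, 3-fold dilutions from a 1 μM final top concentration.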

[2] = target: DNA-PK (Homo sapiens (Human), UniProt P78527); experiment: DNA-PK Enzyme-Linked Immunosorbent Assay (phosphorylation of GST-p53 (1-101) peptide); assay type: biochemical; settings: ELISA
Method: Assay of Compounds ATM and DNA-PK Inhibition
remove wash solution, turn plate upside down onto a thin paper towel and centrifuge at 1000 rpm for 1 min to absorb all wash buffer. Clean the bottom of plate with moist lint free paper. Scan plate immediately using ODYSSEY CLx (LI-COR) for the best results. DNA-PK Enzyme-Linked Immunosorbent Assay:
On day one, coat 96-well plate (ThermoFisher. Cat #: 442404) with GST-p53 (1-101) peptide (purified by Pharmaron, BCS department) by diluting 3 μg of GST-p53 each well with 0.1 M Na2CO3/NaHCO3, pH 9.6. Incubate the plate overnight at 4° C. The second day, remove coating buffer, wash 2× with PBST (1×PBS containing 0.1% Tween-20). Then add DNA-PK enzyme solution (Invitrogen, #PR9107A; the final DNA-PK concentration is 0.1 μg/mL), series dilution compounds (the final top concentration is 100 nM, 3 fold series dilution, with total 10 doses) and ATP solution (the final ATP concentration is 20 μM) to the 96-well plate. Incubate the plate at 25° C. for 1 hour. Then wash 3× with PBST (1×PBS containing 0.1% Tween-20). Block the plate with PBST+ 1% BSA at 4° C. overnight. The third day, wash 4× with PBST (1×PBS containing 0.1% Tween-20). Then add Phospho-p53 primary antibody (cell signaling Technology, #9286, Phospho-p53 (Ser15) (16G8) Mouse mAb) (1/1000) to each well. Seal with plate and incubate the plate for 1 h at 37° C. Wash 4× with PBST (1×PBS containing 0.1% Tween-20), add 100 μL of HRP-linked secondary antibody (Cell signaling Technology, #7076, Anti-mouse IgG, HRP-linked Antibody) (1/1000) to each well. Seal with tape and incubate the plate for 30 min at 37° C. Wash 4× with PBST (1×PBS containing 0.1% Tween-20), add 100 μL of TMB (Cell signaling Technology, #7004) substrate to each well. Seal with tape and incubate the plate for 10 min at 37° C. Then add 100 μL of Stop solution (Cell signaling Technology, #7002) to each well. Read the plate at 450 nm to detect absorption.

[3] = MCF-7 cells, etoposide 100 μM, 1 hr, pKAP1 readout
[4] = pKAP1 in etoposide-treated MCF-7 cells

ATM, sequence (Q13315 whole entry): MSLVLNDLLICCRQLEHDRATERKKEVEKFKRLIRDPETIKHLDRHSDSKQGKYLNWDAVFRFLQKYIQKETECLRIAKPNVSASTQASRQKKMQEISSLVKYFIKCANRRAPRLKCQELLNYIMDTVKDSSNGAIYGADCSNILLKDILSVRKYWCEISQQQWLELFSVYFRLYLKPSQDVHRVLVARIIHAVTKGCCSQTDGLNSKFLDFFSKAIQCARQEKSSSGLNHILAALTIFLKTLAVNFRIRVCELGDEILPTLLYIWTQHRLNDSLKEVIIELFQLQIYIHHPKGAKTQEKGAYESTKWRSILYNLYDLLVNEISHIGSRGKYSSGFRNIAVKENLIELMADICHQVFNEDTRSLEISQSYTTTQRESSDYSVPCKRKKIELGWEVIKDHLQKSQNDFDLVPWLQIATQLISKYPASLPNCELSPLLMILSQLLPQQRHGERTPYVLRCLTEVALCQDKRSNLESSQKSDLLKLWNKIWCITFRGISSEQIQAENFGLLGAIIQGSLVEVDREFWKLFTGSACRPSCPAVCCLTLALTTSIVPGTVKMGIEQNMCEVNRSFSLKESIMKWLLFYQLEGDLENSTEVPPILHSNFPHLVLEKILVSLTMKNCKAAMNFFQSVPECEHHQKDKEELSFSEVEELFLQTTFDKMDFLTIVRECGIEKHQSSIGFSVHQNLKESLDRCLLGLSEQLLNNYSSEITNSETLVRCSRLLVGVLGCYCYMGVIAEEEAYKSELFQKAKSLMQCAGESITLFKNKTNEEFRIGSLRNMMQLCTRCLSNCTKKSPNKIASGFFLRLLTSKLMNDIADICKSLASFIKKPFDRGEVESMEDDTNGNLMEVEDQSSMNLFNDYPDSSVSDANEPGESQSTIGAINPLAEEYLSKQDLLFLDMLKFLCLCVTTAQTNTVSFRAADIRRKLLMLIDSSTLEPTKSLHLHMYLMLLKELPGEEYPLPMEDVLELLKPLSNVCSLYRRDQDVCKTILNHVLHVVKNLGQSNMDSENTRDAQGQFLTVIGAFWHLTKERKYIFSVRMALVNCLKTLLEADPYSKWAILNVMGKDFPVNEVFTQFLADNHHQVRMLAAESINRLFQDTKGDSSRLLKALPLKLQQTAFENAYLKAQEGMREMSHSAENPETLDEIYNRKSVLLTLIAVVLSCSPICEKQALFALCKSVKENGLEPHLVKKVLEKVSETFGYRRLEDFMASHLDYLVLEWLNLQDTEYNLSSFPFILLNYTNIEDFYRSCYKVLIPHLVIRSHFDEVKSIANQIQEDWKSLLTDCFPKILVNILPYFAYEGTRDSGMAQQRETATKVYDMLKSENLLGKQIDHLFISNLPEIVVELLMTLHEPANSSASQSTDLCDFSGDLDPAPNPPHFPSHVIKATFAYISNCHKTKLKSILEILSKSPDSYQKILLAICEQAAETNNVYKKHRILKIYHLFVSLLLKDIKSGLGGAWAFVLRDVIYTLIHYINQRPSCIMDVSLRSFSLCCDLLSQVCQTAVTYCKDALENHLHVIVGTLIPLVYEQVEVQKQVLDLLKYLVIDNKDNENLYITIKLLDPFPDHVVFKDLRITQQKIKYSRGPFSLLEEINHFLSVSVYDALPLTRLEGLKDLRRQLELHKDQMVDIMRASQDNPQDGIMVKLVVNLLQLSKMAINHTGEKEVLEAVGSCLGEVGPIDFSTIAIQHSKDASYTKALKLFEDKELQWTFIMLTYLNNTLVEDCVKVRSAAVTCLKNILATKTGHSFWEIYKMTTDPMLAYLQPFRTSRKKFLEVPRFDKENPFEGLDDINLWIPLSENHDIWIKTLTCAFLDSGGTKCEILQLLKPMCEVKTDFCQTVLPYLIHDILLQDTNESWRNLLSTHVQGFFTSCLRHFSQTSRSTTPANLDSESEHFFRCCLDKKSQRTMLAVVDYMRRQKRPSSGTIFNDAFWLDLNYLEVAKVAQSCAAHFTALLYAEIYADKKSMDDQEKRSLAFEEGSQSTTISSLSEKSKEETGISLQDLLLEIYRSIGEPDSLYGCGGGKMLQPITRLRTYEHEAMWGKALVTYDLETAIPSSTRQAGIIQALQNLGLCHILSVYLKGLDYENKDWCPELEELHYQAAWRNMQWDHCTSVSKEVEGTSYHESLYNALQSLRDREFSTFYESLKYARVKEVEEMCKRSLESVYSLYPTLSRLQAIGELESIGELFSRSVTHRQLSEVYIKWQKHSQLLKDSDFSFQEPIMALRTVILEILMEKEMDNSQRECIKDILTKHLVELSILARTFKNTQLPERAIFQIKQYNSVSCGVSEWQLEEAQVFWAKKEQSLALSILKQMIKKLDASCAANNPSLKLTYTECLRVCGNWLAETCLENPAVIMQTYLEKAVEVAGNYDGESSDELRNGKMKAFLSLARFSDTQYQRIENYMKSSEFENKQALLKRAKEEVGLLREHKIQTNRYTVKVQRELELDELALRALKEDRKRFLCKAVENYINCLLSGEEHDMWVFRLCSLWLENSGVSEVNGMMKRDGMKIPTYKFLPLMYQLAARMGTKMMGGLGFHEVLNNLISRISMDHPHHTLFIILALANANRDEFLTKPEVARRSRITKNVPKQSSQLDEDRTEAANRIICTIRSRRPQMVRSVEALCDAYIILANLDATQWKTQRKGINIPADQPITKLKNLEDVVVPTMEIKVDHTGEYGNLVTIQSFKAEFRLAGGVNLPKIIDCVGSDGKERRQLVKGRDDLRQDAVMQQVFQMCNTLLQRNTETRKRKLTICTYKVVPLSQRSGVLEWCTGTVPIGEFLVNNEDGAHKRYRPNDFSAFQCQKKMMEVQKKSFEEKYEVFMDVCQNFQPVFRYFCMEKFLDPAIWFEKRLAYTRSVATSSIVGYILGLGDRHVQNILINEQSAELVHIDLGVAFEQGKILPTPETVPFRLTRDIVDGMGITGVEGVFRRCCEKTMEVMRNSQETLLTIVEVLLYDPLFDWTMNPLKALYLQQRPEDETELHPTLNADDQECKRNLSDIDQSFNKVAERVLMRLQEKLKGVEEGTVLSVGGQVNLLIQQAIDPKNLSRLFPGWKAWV

Row | IC50 [1, 3] [nM] | IC50 ([2]; ATP 20 μM) [nM] | IC50 [1, 4] [nM] | IC50 ([2]; 20 μM ATP) [nM] | Structure (SMILES)
1 | 1 to 100 | < 0.5 | – | – | CNC1CN(c2ncc(-c3ccc4ncc5c(c4c3)C3(CCC3)C(=O)N5C)cc2NS(C)(=O)=O)C1 [Example 329, N-(5-(3′-Methyl-2′-oxo-2′,3′-dihydrospiro[cyclobutane-1,1′-pyrrolo[2,3-c]quinolin]-8′-yl)-2-(3-(methylamino)azetidin-1-yl)pyridin-3-yl) methanesulfonamide formate]
2 | – | – | 1 to 100 | < 0.5 | Cc1ccccc1N1CC2(C1)C(=O)N(C)c1cnc3cc(F)c(-c4cnc(OCCNC(C)C)c(NS(C)(=O)=O)c4)cc3c12 [Example 528, N-(5-(7′-Fluoro-3′-methyl-2′-oxo-1-(o-tolyl)-2′,3′-dihydrospiro[azetidine-3,1′-pyrrolo[2,3-c]quinolin]-8′-yl)-2-(2-(isopropylamino)ethoxy)pyridin-3-yl)methanesulfonamide]
3 | – | – | 1 to 100 | 1 to 100 | CCN(C)S(=O)(=O)Nc1cc(-c2ccc3ncc4c(c3c2)C2(CCC2)C(=O)N4C)cnc1N1CC(N(C)C)C1 [Example 339, 8′-{6-[3-(Dimethylamino)azetidin-1-yl]-5-{[ethyl(methyl)sulfamoyl]amino}pyridin-3-yl}-3′-methyl-2′,3′-dihydrospiro [cyclobutane-1,1′-pyrrolo[2,3-c]quinoline]-2′-one]
4 | 0.5 to 1 | < 0.5 | – | – | CN(C)CCCOc1ncc(-c2ccc3ncc4c(c3c2)C2(CC2)C(=O)N4C)cc1NS(=O)(=O)N1CCCC1 [Example 89, N-(2-(3-(Dimethylamino)propoxy)-5-(3′-methyl-2′-oxo-2′,3′-dihydrospiro [cyclopropane-1,1′-pyrrolo[2,3-c]quinolin]-8′-yl)pyridin-3-yl)pyrrolidine-1-sulfonamide hydrochloride]
5 | 0.5 to 1 | < 0.5 | – | – | CN1C(=O)C2(CCC2)c2c1cnc1ccc(-c3cnc(N4CCC(N5CCCCC5)CC4)c(NS(C)(=O)=O)c3)cc21 [Example 228, N-(2-([1,4′-Bipiperidin]-1′-yl)-5-(3′-methyl-2′-oxo-2′,3′-dihydrospiro[cyclobutane-1,1′-pyrrolo[2,3-c]quinolin]-8′-yl)pyridin-3-yl)methanesulfonamide]
6 | – | – | 1 to 100 | 1 to 100 | CCO[C@H]1C[C@]2(C1)C(=O)N(C)c1cnc3cc(F)c(-c4cnc(OCCNC(C)C)c(NS(C)(=O)=O)c4)cc3c12 [Example 393, cis-N-(5-(3-Ethoxy-7′-fluoro-3′-methyl-2′-oxo-2′,3′-dihydrospiro[cyclobutane-1,1′-pyrrolo[2,3-c]quinolin]-8′-yl)-2-(2-(isopropylamino)ethoxy)pyridin-3-yl) methanesulfonamide]
7 | 1 to 100 | 0.5 to 1 | – | – | CN1C(=O)C2(CCC2)c2c1cnc1ccc(-c3cnc(OCCCN4CCCCC4)c(NS(=O)(=O)c4ccccc4F)c3)cc21 [Example 195, 2-Fluoro-N-(5-(3′-methyl-2′-oxo-2′,3′-dihydrospiro[cyclobutane-1,1′-pyrrolo[2,3-c]quinolin]-8′-yl)-2-(3-(piperidin-1-yl)propoxy)pyridin-3-yl) benzenesulfonamide hydrochloride]
8 | 1 to 100 | 1 to 100 | – | – | CN(C)CCCOc1ncc(-c2cc3c4c(cnc3cc2F)N(C)C(=O)C42CC2)cc1NS(=O)(=O)C1CC1 [Example 66, N-(2-(3-(Dimethylamino)propoxy)-5-(7′-fluoro-3′-methyl-2′-oxo-2′,3′-dihydrospiro[cyclopropane-1,1′-pyrrolo[2,3-c]quinolin]-8′-yl)pyridin-3-yl) cyclopropanesulfonamide]
9 | 1 to 100 | < 0.5 | – | – | Cc1ccc(S(=O)(=O)Nc2cc(-c3ccc4ncc5c(c4c3)C3(CCC3)C(=O)N5C)cnc2N2CCN(C)CC2)cn1 [Example 201, 6-Methyl-N-(5-(3′-methyl-2′-oxo-2′,3′-dihydrospiro[cyclobutane-1,1′-pyrrolo[2,3-c]quinolin]-8′-yl)-2-(4-methylpiperazin-1-yl)pyridin-3-yl)pyridine-3-sulfonamide]
10 | 0.5 to 1 | < 0.5 | – | – | CN(C)CCCOc1ncc(-c2ccc3ncc4c(c3c2)C2(CC2)C(=O)N4C)cc1NS(=O)(=O)c1ccccc1F [Example 107, N-(2-(3-(Dimethylamino)propoxy)-5-(3′-methyl-2′-oxo-2′,3′-dihydrospiro[cyclopropane-1,1′-pyrrolo[2,3-c]quinolin]-8′-yl)pyridin-3-yl)-2-fluorobenzenesulfonamide]
11 | – | – | 1 to 100 | 1 to 100 | CN1C(=O)C2(CCC2)c2c1cnc1ccc(-c3cnc(N4CCC(N5CCCCC5)C4)c(NS(C)(=O)=O)c3)cc21 (racemic) [Example 352, (rac)-N-(5-(3′-Methyl-2′-oxo-2′,3′-dihydrospiro[cyclobulane-1,1′-pyrrolo[2,3-c]quinolin]-8′-yl)-2-(3-(piperidin-1-yl)pyrrolidin-1-yl)pyridin-3-yl)methanesulfonamide hydrochloride]
12 | 1 to 100 | 0.5 to 1 | – | – | Cl.[2H]C1([2H])N(CCCOc2ncc(-c3ccc4ncc5c(c4c3)C3(CCC3)C(=O)N5C)cc2NS(=O)(=O)c2ccc(C)nc2)C([2H])([2H])C([2H])([2H])C([2H])([2H])C1([2H])[2H] [Example 221, 6-Methyl-N-(5-(3′-methyl-2′-oxo-2′,3′-dihydrospiro[cyclobulane-1,1′-pyrrolo[2,3-c]quinolin]-8′-yl)-2-(3-(piperidin-1-yl-d10)propoxy)pyridin-3-yl)pyridine-3-sulfonamide hydrochloride]
13 | 1 to 100 | 1 to 100 | – | – | CN1CCCN(c2ncc(-c3ccc4ncc5c(c4c3)C3(CC3)C(=O)N5C)cc2NS(=O)(=O)c2ccccc2)CC1 [Example 53, N-(2-(4-Methyl-1,4-diazepan-1-yl)-5-(3′-methyl-2′-oxo-2′,3′-dihydrospiro[cyclopropane-1,1′-pyrrolo[2,3-c]quinolin]-8′-yl)pyridin-3-yl)benzenesulfonamide]
14 | – | – | 1 to 100 | 1 to 100 | CO[C@H]1C[C@@]2(C1)C(=O)N(C)c1cnc3cc(F)c(-c4cnc(OCCNC(C)C)c(NS(=O)(=O)C5CC5)c4)cc3c12 [Example 388, trans-N-{5-(7′-Fluoro-3-methoxy-3 methyl-2′-oxo-2′,3′-dihydrospiro [cyclobutane-1,1′-pyrrolo[2,3-c]quinolin]-8′-yl)-2-(2-(isopropylamino)ethoxy)pyridin-3-yl)cyclopropanesulfonamide]
15 | – | – | 1 to 100 | 1 to 100 | CC(C)NCCOc1ncc(-c2cc3c(cc2F)ncc2c3[C@]3(C[C@H](COC(C)C)C3)C(=O)N2C)cc1NS(=O)(=O)C(C)C [Example 412, cis-N-(5-(7′-Fluoro-3-(isopropoxymethyl)-3′-methyl-2′-oxo-2′,3′-dihydrospiro[cyclobutane-1,1′-pyrrolo[2,3-c]quinolin]-8′-yl)-2-(2-(isopropylamino)ethoxy)pyridin-3-yl)propane-2-sulfonamide]
16 | 1 to 100 | 0.5 to 1 | – | – | CN(C)CCOc1ncc(-c2ccc3ncc4c(c3c2)C2(CCCC2)C(=O)N4C)cc1NS(=O)(=O)c1ccccc1 [Example 6, N-(2-(2-(Dimethylamino)ethoxy)-5-(3′-methyl-2′-oxo-2′,3′-dihydrospiro[cyclopentane-1,1′-pyrrolo[2,3-c]quinolin]-8′-yl)pyridin-3-yl)benzenesulfonamide]
17 | 1 to 100 | < 0.5 | – | – | CN(C)CCCOc1ncc(-c2ccc3ncc4c(c3c2)C2(CC2)C(=O)N4C)cc1NS(=O)(=O)c1ccc(Cl)cc1 [Example 128, 4-Chloro-N-(2-(3-(dimethylamino)propoxy)-5-(3′-methyl-2′-oxo-2′,3′-dihydrospiro[cyclopropane-1,1′-pyrrolo[2,3-c]quinolin]-8′-yl)pyridin-3-yl)benzenesulfonamide hydrochloride]

Row | Structure (SMILES) | IC50 [1, 3] [nM] | IC50 ([2]; ATP 20 μM) [nM] | IC50 [1, 4] [nM] | IC50 ([2]; 20 μM ATP) [nM]
18 | CN1C(=O)C2(CC2)c2c1cnc1ccc(-c3cnc(OC4CC(N(C)C)C4)c(NS(=O)(=O)c4ccccc4)c3)cc21 (stereo not drawn) [Example 102, N-(2-(3-(Dimethylamino)cyclobutoxy)-5-(3′-methyl-2′-oxo-2′,3′-dihydrospiro[cyclopropane-1,1′-pyrrolo[2,3-c]quinolin]-8′-yl)pyridin-3-yl)benzenesulfonamide] | 1 to 100 | 1 to 100 | – | –
